Assay: Affinity for bacterial ZipA-FtsZ protein-protein interaction
Design: species or system Escherichia coli

Row | SMILES | Kd
1 | CC(=O)Nc1cccc(-c2ccc3nnc(-c4ccccc4)n3n2)c1 | 73.9 µM
2 | CC(=O)N(C)c1cccc(-c2ccc3nnc(-c4cccnc4)n3n2)c1 | 85.1 µM

From ChEMBL document CHEMBL1144349, “A shape-based 3-D scaffold hopping method and its application to a bacterial protein-protein interaction” (J Med Chem, 2005)
